Assay results reported in patent publication US5658781A, “Insecticidally effective peptides” (priority 1995, dated 1997).

What was measured:
[1] = tested on: cabbage looper (Trichoplusia ni); assay: Toxin injection PD50 in CL larvae; assay type: in vivo
[2] = tested on: beet armyworm (Spodoptera exigua); assay: Toxin injection PD50 in BAW larvae; assay type: in vivo
mice = assay type: in vivo; conditions: i.p., approximate dose 0.9 mg/kg
Experimental: Whole venom, 5 μl, obtained from D. canities as described herein was fatal to mice by intraperitoneal injection (i.p.) in three separate tests. Treated mice were initially indistinguishable from saline controls. About 10 to 15 minutes after injection, treated mice became moderately hyperactive, displaying a characteristic hopping gait; this was followed by a short period of uncoordination, labored breathing and convulsions. Death followed within 2 minutes of the initial onset of symptoms.
Residue 9.2 was injected into the intracerebral ventricles in four mice (approx. 28 gm) at a dose of approximately 30 μg per animal (approximately 1 mg/kg).
To characterize the vertebrate toxicity of this venom, pooled reversed-phase fractions of whole venom were tested in mice (FIG. 1). Fraction 2 comprised the components with tobacco budworm (TBW) activity.

[3] = tested on: tobacco budworm (Heliothis virescens); assay: Injection paralysis assay in tobacco budworm larvae; assay type: in vivo
maggot peripheral nerves = assay: Extracellular recording from house fly larval peripheral nerves; assay type: cell-based, Musca domestica
[4] = tested on: maggot neuromuscular junction; assay: Neuromuscular junction EPSP recording in house fly larvae; assay type: cell-based, Musca domestica

With “DK 11: Insecticidal peptide isolated from Diguetia canities venom, SEQ ID NO:3, about 6700 or 6740 daltons (AKDGDVKGPAGCMKYKSGDCRGKTCCDQQ)” the PD50 [1] was 0.86 nmol/gm, the PD50 [2] was < 1.5 nmol/gm and the “effects in mice within 24 hours” value (mice) was “no effects seen”. The PD50 ([3]; TBW larvae, injection, probit analysis) was 0.71 nmol/gm, the “insects exhibiting paralysis after 24 hours” value ([3]; TBW, 5.0 WVE/g, 24 hours) was 80% and the “insects exhibiting paralysis after 48 hours” value ([3]; TBW, 5.0 WVE/g, 48 hours) was 60%.
With `NC1=N[C@H](O)[C@H]2[C@H]3O[C@]4(O)O[C@@H]([C@@H](O)[C@@]2(N1)[C@@H]4O)[C@]3(O)CO` [TTX, tetrodotoxin] the “effect on DK 9.2-induced increase in nerve discharge” value (maggot peripheral nerves) was “rapidly blocked”, the “effect on sensitivity to subsequent treatment with 100 nM DK 9.2” value [4] was “rendered the preparation insensitive” and the “effect on the EPSP” value [4] was “rapidly blocked”.
